Values of other authors as cited in patent US9839606B2, “Formulation for treatment of hairs” (OSMA Cosmetics & Laboratories AG, priority 2013, dated 2017).

Tests used:
[1] = test system: human dermal papilla cells (DPCs)

epigallocatechin-3-gallate [EGCG]
hair growth in hair follicles ex vivo culture (hair follicles): promoted hair growth
proliferation of cultured DPCs [1]: promoted
